Results: patent US4131686A, “Novel benzylalcohol derivatives and processes for preparing the same” (Tanabe Seiyaku Co., Ltd., priority 1975, dated 1978)

Assays:
blood-pressure = details: known cardiotonic compounds, U.S. Pat. 3869474 and Offenlegungsschrift 2420427; cited from earlier work
adrenergic β1 -receptor = details: known compounds, U.S. Pat. 3869474 and Offenlegungsschrift 2420427; cited from earlier work
[1] = acute toxicity: 50% lethal dose (LD50) by oral administration to mice; details: mouse, in vivo
blood sugar = experiment: blood sugar-lowering test: oral administration to mice prior to subcutaneous injection of glucose (one g/kg); type: in vivo; details: 100 mg/kg required; same conditions (mice, oral, s.c. glucose one g/kg)

| Compound | influence upon blood-pressure (blood-pressure) | activation of adrenergic β1-receptor (adrenergic β1 -receptor) | LD50 [1] | decrease in the blood sugar (blood sugar) |
| --- | --- | --- | --- | --- |
| COc1ccc(CCNCC(O)c2ccc(O)c(O)c2)cc1OC (stereo not drawn) [α-(3,4-dimethoxyphenethylaminomethyl)-3,4-dihydroxybenzylalcohol] | no substantial influence | selective activation |  |  |
| COc1ccc(CCNCC(O)c2ccccc2OC)cc1OC (racemic) [dl-α-(3,4-dimethoxyphenethylaminomethyl)-2-methoxybenzylalcohol] |  |  | ~580 mg/kg |  |
| N=C(N)NC(=N)NCCc1ccccc1 [Phenformin, 1-phenethylbiguanide] |  |  |  | ~30% |
| COc1cc(CCNCC(O)c2ccc(O)c(O)c2)cc(OC)c1OC (stereo not drawn) [α-(3,4,5-trimethoxyphenethylaminomethyl)-3,4-dihydroxybenzylalcohol] | no substantial influence | selective activation |  |  |
